Data published in the supplement of paper PMC11061612.

Experiments:
SN-38 = compound: CCc1c2c(nc3ccc(O)cc13)-c1cc3c(c(=O)n1C2)COC(=O)[C@]3(O)CC [SN-38]; conditions: max 0.3 µM
Outline: (§1)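 Cancer cell lines were seeded in 1536-well plates in 7.5 μl DMEM/F12 or RPMI with 10% FBS, held 24 hours at 37°C and 5% CO2, then dosed for 72 hours (final DMSO typically 0.2%). Viability was read by CellTiter-Glo 2.0 luminescence and scaled between blank-well and DMSO-well means. The single-agent IC50 comes from dose responses fitted to a two-parameter logistic curve with a non-linear mixed effects model.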

SRA737 = compound: N#Cc1cnc(Nc2cc(NC[C@H]3CNCCO3)c(C(F)(F)F)cn2)cn1 [SRA737]; conditions: max 10 µM
Outline: as §1

AZD2811 = compound: CCN(CCO)CCCOc1ccc2c(Nc3cc(CC(=O)Nc4cccc(F)c4)[nH]n3)ncnc2c1 [AZD2811]; conditions: max 1 µM
Outline: as §1

Olaparib = compound: O=C(c1cc(Cc2n[nH]c(=O)c3ccccc23)ccc1F)N1CCN(C(=O)C2CC2)CC1 [Olaparib]; conditions: max 10 µM
Outline: as §1

AZD5153 = compound: COc1nnc2ccc(N3CCC(c4ccc(OCCN5CCN(C)C(=O)[C@H]5C)cc4)CC3)nn12 [AZD5153]; conditions: max 1 µM
Outline: as §1

AZD8186 = compound: C[C@@H](Nc1cc(F)cc(F)c1)c1cc(C(=O)N(C)C)cc2c(=O)cc(N3CCOCC3)oc12 [AZD8186]; conditions: max 10 µM
Outline: as §1

AZD6738 = compound: C[C@@H]1COCCN1C2=NC(=NC(=C2)C3(CC3)[S@](=N)(=O)C)C4=C5C=CNC5=NC=C4 [AZD6738]; conditions: max 10 µM
Outline: as §1

MK-2206 = compound: NC1(c2ccc(-c3nc4ccn5c(=O)[nH]nc5c4cc3-c3ccccc3)cc2)CCC1 [MK-2206]; conditions: max 10 µM
Outline: as §1

AZD5991 = compound: Cc1c2c(nn1C)CSCc1cc(n(C)n1)CSc1cc(c3ccccc3c1)OCCCc1c(C(=O)O)n(C)c3c-2c(Cl)ccc13 [AZD5991]; conditions: max 1 µM
Outline: as §1

AZD4320 = compound: CN(CC[C@H](CSC1=CC=CC=C1)NC2=C(C=C(C=C2)S(=O)(=O)NC(=O)C3=CC=C(C=C3)N4CCC(CC4)[C@H](C5=CC=CC=C5C6=CC=C(C=C6)Cl)O)S(=O)(=O)C(F)(F)F)CCO [AZD4320]; conditions: max 1 µM
Outline: as §1

[1] = compound: O=C(Nc1ccc2[nH]nc(-c3ccncc3)c2c1)[C@@H]1CCN(CC(=O)N2CCN(c3ccc(-c4ncccn4)cc3)CC2)C1; conditions: max 5 µM
Outline: as §1

Palbociclib = compound: CC(=O)c1c(C)c2cnc(Nc3ccc(N4CCNCC4)cn3)nc2n(C2CCCC2)c1=O [Palbociclib]; conditions: max 10 µM
Outline: as §1

AZD1390 = compound: CC(C)n1c(=O)n(C)c2cnc3cc(F)c(-c4ccc(OCCCN5CCCCC5)nc4)cc3c21 [AZD1390]; conditions: max 0.3 µM
Outline: as §1

Crizotinib = compound: C[C@@H](Oc1cc(-c2cnn(C3CCNCC3)c2)cnc1N)c1c(Cl)ccc(F)c1Cl [Crizotinib]; conditions: max 10 µM
Outline: as §1

Doxorubicin = compound: COc1cccc2c1C(=O)c1c(O)c3c(c(O)c1C2=O)C[C@@](O)(C(=O)CO)C[C@@H]3O[C@H]1C[C@H](N)[C@H](O)[C@H](C)O1 [Doxorubicin]; conditions: max 1 µM
Outline: as §1

Carboplatin = compound: C1CC(C1)(C(=O)[O-])C(=O)[O-].N.N.[Pt+2] [Carboplatin]; conditions: max 10 µM
Outline: as §1

AZD1775 = compound: C=CCn1c(=O)c2cnc(Nc3ccc(N4CCN(C)CC4)cc3)nc2n1-c1cccc(C(C)(C)O)n1 [AZD1775]; conditions: max 3 µM
Outline: as §1

Trametinib = compound: CC(=O)Nc1cccc(-n2c(=O)n(C3CC3)c(=O)c3c(Nc4ccc(I)cc4F)n(C)c(=O)c(C)c32)c1 [Trametinib]; conditions: max 1 µM
Outline: as §1

Lapatinib = compound: CS(=O)(=O)CCNCc1ccc(-c2ccc3ncnc(Nc4ccc(OCc5cccc(F)c5)c(Cl)c4)c3c2)o1 [Lapatinib]; conditions: max 10 µM
Outline: as §1

Etoposide = compound: COc1cc([C@@H]2c3cc4c(cc3[C@@H](O[C@@H]3O[C@@H]5CO[C@@H](C)O[C@H]5[C@H](O)[C@H]3O)[C@H]3COC(=O)[C@H]23)OCO4)cc(OC)c1O [Etoposide]; conditions: max 10 µM
Outline: as §1

Taselisib = compound: Cc1nc(-c2cn3c(n2)-c2ccc(-c4cnn(C(C)(C)C(N)=O)c4)cc2OCC3)n(C(C)C)n1 [Taselisib]; conditions: max 10 µM
Outline: as §1

Alisertib = compound: COc1cc(Nc2ncc3c(n2)-c2ccc(Cl)cc2C(c2c(F)cccc2OC)=NC3)ccc1C(=O)O [Alisertib]; conditions: max 10 µM
Outline: as §1

AZD0156 = compound: CN(C)CCCOc1ccc(-c2ccc3ncc4c(c3c2)n(C2CCOCC2)c(=O)n4C)cn1 [AZD0156]; conditions: max 3 µM
Outline: as §1

Paclitaxel = compound: CC(=O)O[C@H]1C(=O)[C@@]2(C)[C@H]([C@H](OC(=O)c3ccccc3)[C@]3(O)C[C@H](OC(=O)[C@H](O)[C@@H](NC(=O)c4ccccc4)c4ccccc4)C(C)=C1C3(C)C)[C@]1(OC(C)=O)CO[C@@H]1C[C@@H]2O [Paclitaxel]; conditions: max 3 µM
Outline: as §1

Selumetinib = compound: Cn1cnc2c(F)c(Nc3ccc(Br)cc3Cl)c(C(=O)NOCCO)cc21 [Selumetinib]; conditions: max 10 µM
Outline: as §1

SG3199 = compound: CC1=CN2[C@@H](C1)C=NC3=CC(=C(C=C3C2=O)OC)OCCCCCOC4=C(C=C5C(=C4)N=C[C@@H]6CC(=CN6C5=O)C)OC [SG3199]; conditions: max 0.001 µM
Outline: as §1

Prexasertib = compound: COc1cccc(OCCCN)c1-c1cc(Nc2cnc(C#N)cn2)n[nH]1 [Prexasertib]; conditions: max 1 µM
Outline: as §1

Savolitinib = compound: C[C@@H](c1ccc2nccn2c1)n1nnc2ncc(-c3cnn(C)c3)nc21 [Savolitinib]; conditions: max 1 µM
Outline: as §1

AZD7648 = compound: Cc1cc2ncnn2cc1Nc1ncc2c(n1)n(C1CCOCC1)c(=O)n2C [AZD7648]; conditions: max 10 µM
Outline: as §1

Dasatinib = compound: CC1=C(C(=CC=C1)Cl)NC(=O)C2=CN=C(S2)NC3=CC(=NC(=N3)C)N4CCN(CC4)CCO [Dasatinib]; conditions: max 2 µM
Outline: as §1

Gemcitabine = compound: Nc1ccn([C@@H]2O[C@H](CO)[C@@H](O)C2(F)F)c(=O)n1 [Gemcitabine]; conditions: max 0.3 µM
Outline: as §1

Venetoclax = compound: CC1(C)CCC(CN2CCN(c3ccc(C(=O)NS(=O)(=O)c4ccc(NCC5CCOCC5)c([N+](=O)[O-])c4)c(Oc4cnc5[nH]ccc5c4)c3)CC2)=C(c2ccc(Cl)cc2)C1 [Venetoclax]; conditions: max 1 µM
Outline: as §1

AZD5363 = compound: C1CN(CCC1(C(=O)N[C@@H](CCO)C2=CC=C(C=C2)Cl)N)C3=NC=NC4=C3C=CN4 [AZD5363]; conditions: max 10 µM
Outline: as §1

5-Fluorouracil = compound: O=c1[nH]cc(F)c(=O)[nH]1 [5-Fluorouracil]; conditions: max 20 µM
Outline: as §1

Gefitinib = compound: COc1cc2ncnc(Nc3ccc(F)c(Cl)c3)c2cc1OCCCN1CCOCC1 [Gefitinib]; conditions: max 10 µM
Outline: as §1

Row | Cell Line | IC50, cell viability 72 h (SN-38) | IC50, cell viability 72 h (SRA737) | IC50, cell viability 72 h (AZD2811) | IC50, cell viability 72 h (Olaparib) | IC50, cell viability 72 h (AZD5153) | IC50, cell viability 72 h (AZD8186) | IC50, cell viability 72 h (AZD6738) | IC50, cell viability 72 h (MK-2206) | IC50, cell viability 72 h (AZD5991) | IC50, cell viability 72 h (AZD4320) | IC50, cell viability 72 h [1] | IC50, cell viability 72 h (Palbociclib) | IC50, cell viability 72 h (AZD1390) | IC50, cell viability 72 h (Crizotinib) | IC50, cell viability 72 h (Doxorubicin) | IC50, cell viability 72 h (Carboplatin) | IC50, cell viability 72 h (AZD1775) | IC50, cell viability 72 h (Trametinib) | IC50, cell viability 72 h (Lapatinib) | IC50, cell viability 72 h (Etoposide) | IC50, cell viability 72 h (Taselisib) | IC50, cell viability 72 h (Alisertib) | IC50, cell viability 72 h (AZD0156) | IC50, cell viability 72 h (Paclitaxel) | IC50, cell viability 72 h (Selumetinib) | IC50, cell viability 72 h (SG3199) | IC50, cell viability 72 h (Prexasertib) | IC50, cell viability 72 h (Savolitinib) | IC50, cell viability 72 h (AZD7648) | IC50, cell viability 72 h (Dasatinib) | IC50, cell viability 72 h (Gemcitabine) | IC50, cell viability 72 h (Venetoclax) | IC50, cell viability 72 h (AZD5363) | IC50, cell viability 72 h (5-Fluorouracil) | IC50, cell viability 72 h (Gefitinib)
1 | BC-1 (B-Cell Non-Hodgkin's Lymphoma) | 0.00532 µM | 2.7 µM | 0.199 µM | > 10 µM | 0.0175 µM | > 10 µM | 2.95 µM | 4.1 µM | 0.0872 µM | > 1 µM | > 5 µM | 0.342 µM | > 0.3 µM | 1.69 µM | 0.05 µM | > 10 µM | 0.321 µM | > 1 µM | 8.74 µM | 0.77 µM | > 10 µM | 0.0653 µM | 2.42 µM | 0.0121 µM | > 10 µM | > 0.001 µM | 0.013 µM | > 1 µM | > 10 µM | > 2 µM | 0.0154 µM | > 1 µM | 4.4 µM | 17.2 µM | 9.56 µM
2 | C32 (Melanoma) | 0.0617 µM | > 10 µM | > 1 µM | > 10 µM | > 1 µM | > 10 µM | 8.16 µM | > 10 µM | > 1 µM | > 1 µM | 0.174 µM | > 10 µM | > 0.3 µM | > 10 µM | > 1 µM | > 10 µM | > 3 µM | 0.00411 µM | > 10 µM | > 10 µM | > 10 µM | > 10 µM | > 3 µM | 0.346 µM | 0.323 µM | > 0.001 µM | 0.0527 µM | > 1 µM | > 10 µM | > 2 µM | 0.0541 µM | > 1 µM | > 10 µM | > 20 µM | > 10 µM
3 | CAL-85-1 (Breast Carcinoma) | 0.0965 µM | > 10 µM | > 1 µM | > 10 µM | 0.534 µM | > 10 µM | > 10 µM | > 10 µM | > 1 µM | > 1 µM | > 5 µM | > 10 µM | > 0.3 µM | > 10 µM | > 1 µM | > 10 µM | 2.04 µM | 0.351 µM | > 10 µM | > 10 µM | 6.29 µM | > 10 µM | > 3 µM | 0.0667 µM | > 10 µM | > 0.001 µM | > 1 µM | > 1 µM | > 10 µM | 1.21 µM | 0.246 µM | > 1 µM | > 10 µM | > 20 µM | > 10 µM
4 | COR-L105 (Lung Adenocarcinoma) | > 0.3 µM | > 10 µM | > 1 µM | > 10 µM | > 1 µM | > 10 µM | > 10 µM | > 10 µM | > 1 µM | > 1 µM | > 5 µM | > 10 µM | > 0.3 µM | > 10 µM | > 1 µM | > 10 µM | 2.08 µM | 0.244 µM | 6.66 µM | > 10 µM | 7.36 µM | > 10 µM | > 3 µM | > 3 µM | > 10 µM | > 0.001 µM | > 1 µM | > 1 µM | > 10 µM | > 2 µM | > 0.3 µM | > 1 µM | > 10 µM | > 20 µM | 2.49 µM
5 | GCIY (Gastric Carcinoma) | 0.09 µM | > 10 µM | > 1 µM | > 10 µM | > 1 µM | > 10 µM | 3.03 µM | > 10 µM | > 1 µM | > 1 µM | > 5 µM | > 10 µM | > 0.3 µM | > 10 µM | > 1 µM | > 10 µM | > 3 µM | 0.271 µM | > 10 µM | > 10 µM | 0.895 µM | 1.21 µM | > 3 µM | 0.549 µM | > 10 µM | > 0.001 µM | 0.0419 µM | > 1 µM | > 10 µM | 0.589 µM | > 0.3 µM | > 1 µM | > 10 µM | > 20 µM | > 10 µM
